In US20020137929A1, “1 - (3-heterocyclylphenyl) isothiourea, -isourea, -guanidine and -amidine herbicidal agents” (Intellectual Property Department, BASF Aktiengesellschaft, priority 1998, published 2002):

Legend:
[1] = tested on: AMBEL (Ragweed, Common); experiment: Postemergence herbicidal evaluation; type: in vivo, Ambrosia artemisifolia; settings: postemergence
In short: (§1)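 Herbicidal effect was judged by eye on a 0–9 scale covering stand, vigor, deformity, size and chlorosis, compared with controls, four to five weeks after seedlings about two weeks old were sprayed (40 psi, ~0.0156–0.500 kg/ha).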

[2] = tested on: CASOB (Sicklepod); experiment: Postemergence herbicidal evaluation; type: in vivo, Cassia obtusifolia; settings: postemergence
In short: as §1

[3] = tested on: CHEAL (Lambsquarters, Common); experiment: Postemergence herbicidal evaluation; type: in vivo, Chenopodium album; settings: postemergence
In short: as §1

[4] = tested on: ECHCG (Barnyardgrass); experiment: Postemergence herbicidal evaluation; type: in vivo, Echinochloa crus-galli; settings: postemergence
In short: as §1

[5] = tested on: TRZAWR (Wheat, Winter, cv Riband); experiment: Postemergence herbicidal evaluation; type: in vivo, Triticum aestivum; settings: postemergence
In short: as §1

[6] = tested on: ABUTH (Velvetleaf); experiment: Preemergence herbicidal evaluation; type: in vivo, Abutilon theophrasti; settings: rated 4-5 weeks after treatment
In short: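 Seeds were mixed with potting soil and planted on about one inch of soil, then sprayed with test compound in aqueous acetone at about 0.0156 to 0.500 kg per hectare. Plants grew under standard greenhouse care and were visually rated 0-9 against untreated controls 4-5 weeks post-treatment.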

[7] = tested on: AMBEL (Ragweed, Common); experiment: Preemergence herbicidal evaluation; type: in vivo, Ambrosia artemisifolia; settings: rated 4-5 weeks after treatment
From the text: (§2) Results of herbicide evaluation are expressed on a rating scale (0-9). The scale is based upon a visual observation of plant stand, vigor, malformation, size, chlorosis and overall plant appearance as compared with a control.
(§3) The preemergence herbicidal activity of the test compounds of the present invention is exemplified by the following tests in which the seeds of a variety of monocotyledonous and dicotyledonous plants are separately mixed with potting soil and planted on top of approximately one inch of soil in separate pint cups. After planting, the cups are sprayed with the selected aqueous acetone solution containing test compound in sufficient quantity to provide the equivalent of about 0.0156 to 0.500 kg per hectare of test compound per cup. The treated cups are then placed on greenhouse benches, watered and cared for in accordance with conventional greenhouse procedures. From four to five weeks after treatment, the tests are terminated and each cup is examined and rated according to the rating system provided in Example 37.
(§4) The compounds evaluated are reported by compound number given in Example 37.

[8] = tested on: CASOB (Sicklepod); experiment: Preemergence herbicidal evaluation; type: in vivo, Cassia obtusifolia; settings: rated 4-5 weeks after treatment
From the text: as §2, §3, §4

[9] = tested on: CHEAL (Lambsquarters, Common); experiment: Preemergence herbicidal evaluation; type: in vivo, Chenopodium album; settings: rated 4-5 weeks after treatment
From the text: as §2, §3, §4

[10] = tested on: ORYSAT (Rice, Tebonnet); experiment: Preemergence herbicidal evaluation; type: in vivo, Oryza sativa, (L.) Tebonnet; settings: rated 4-5 weeks after treatment
From the text: as §2, §3, §4

[11] = tested on: MOOVA (Monochoria); experiment: Preemergence weed control under flooded paddy conditions; type: in vivo, Monochoria vaginalis; settings: rated 3-4 weeks after treatment
In short: (§5)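 Seeds or propagules sown in silt loam kept flooded 1.5-3 cm; compounds in 50/50 acetone/water pipetted into flood water at about 0.0313 to 0.500 kg/ha. Greenhouse; visual 0-9 rating versus untreated control 3-4 weeks after treatment.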

[12] = tested on: SAGPY (Arrowhead (Pygmaea)); experiment: as above; type: in vivo, Sagittaria pygmaea; settings: rated 3-4 weeks after treatment
In short: as §5

## CN1C(=O)C(F)SC1=Nc1cc(N2C(=O)C3=C(CCCC3)C2=O)c(F)cc1Cl (centres unmarked) [Compound 5, N-{4-chloro-2-fluoro-5-[(5-fluoro-3-methyl-4-oxo-2-thiazolidinylidene)amino]phenyl}-1-cyclohexene-1,2-dicarboximide]
[1]; rate 0.0157 kg/ha
  AMBEL herbicidal rating: 0.0
[1]; rate 0.0313 kg/ha
  AMBEL herbicidal rating: 0.0
[1]; rate 0.0625 kg/ha
  AMBEL herbicidal rating: 0.0
[1]; rate 0.1250 kg/ha
  AMBEL herbicidal rating: 0.0
[1]; rate 0.2500 kg/ha
  AMBEL herbicidal rating: 2.0
[1]; rate 0.5000 kg/ha
  AMBEL herbicidal rating: 9.0
[2]; rate 0.0157 kg/ha
  CASOB herbicidal rating: 0.0
[2]; rate 0.0313 kg/ha
  CASOB herbicidal rating: 0.0
[2]; rate 0.0625 kg/ha
  CASOB herbicidal rating: 0.0
[2]; rate 0.1250 kg/ha
  CASOB herbicidal rating: 0.0
[2]; rate 0.2500 kg/ha
  CASOB herbicidal rating: 0.0
[2]; rate 0.5000 kg/ha
  CASOB herbicidal rating: 9.0
[3]; rate 0.0157 kg/ha
  CHEAL herbicidal rating: 2.0
[3]; rate 0.0313 kg/ha
  CHEAL herbicidal rating: 2.0
[3]; rate 0.0625 kg/ha
  CHEAL herbicidal rating: 6.0
[3]; rate 0.1250 kg/ha
  CHEAL herbicidal rating: 9.0
[3]; rate 0.2500 kg/ha
  CHEAL herbicidal rating: 8.0
[3]; rate 0.5000 kg/ha
  CHEAL herbicidal rating: 9.0
[4]; rate 0.0157 kg/ha
  ECHCG herbicidal rating: 0.0
[4]; rate 0.0313 kg/ha
  ECHCG herbicidal rating: 0.0
[4]; rate 0.0625 kg/ha
  ECHCG herbicidal rating: 0.0
[4]; rate 0.1250 kg/ha
  ECHCG herbicidal rating: 3.0
[4]; rate 0.2500 kg/ha
  ECHCG herbicidal rating: 4.0
[4]; rate 0.5000 kg/ha
  ECHCG herbicidal rating: 2.0
[5]; rate 0.0157 kg/ha
  TRZAWR herbicidal rating: 3.0
[5]; rate 0.0313 kg/ha
  TRZAWR herbicidal rating: 3.0
[5]; rate 0.0625 kg/ha
  TRZAWR herbicidal rating: 3.5
[5]; rate 0.1250 kg/ha
  TRZAWR herbicidal rating: 4.5
[5]; rate 0.2500 kg/ha
  TRZAWR herbicidal rating: 5.0
[5]; rate 0.5000 kg/ha
  TRZAWR herbicidal rating: 4.5
[6]; rate 0.0625 kg/ha
  ABUTH preemergence herbicidal rating: 0.0
[6]; rate 0.1250 kg/ha
  ABUTH preemergence herbicidal rating: 0.0
[6]; rate 0.2500 kg/ha
  ABUTH preemergence herbicidal rating: 0.0
[6]; rate 0.5000 kg/ha
  ABUTH preemergence herbicidal rating: 0.0
[7]; rate 0.0625 kg/ha
  AMBEL preemergence herbicidal rating: 0.0
[7]; rate 0.1250 kg/ha
  AMBEL preemergence herbicidal rating: 0.0
[7]; rate 0.2500 kg/ha
  AMBEL preemergence herbicidal rating: 0.0
[7]; rate 0.5000 kg/ha
  AMBEL preemergence herbicidal rating: 0.0
[8]; rate 0.0625 kg/ha
  CASOB preemergence herbicidal rating: 0.0
[8]; rate 0.1250 kg/ha
  CASOB preemergence herbicidal rating: 0.0
[8]; rate 0.2500 kg/ha
  CASOB preemergence herbicidal rating: 0.0
[8]; rate 0.5000 kg/ha
  CASOB preemergence herbicidal rating: 0.0
[9]; rate 0.0625 kg/ha
  CHEAL preemergence herbicidal rating: 4.0
[9]; rate 0.1250 kg/ha
  CHEAL preemergence herbicidal rating: 5.0
[9]; rate 0.2500 kg/ha
  CHEAL preemergence herbicidal rating: 9.0
[9]; rate 0.5000 kg/ha
  CHEAL preemergence herbicidal rating: 9.0
[10]; rate 0.0625 kg/ha
  ORYSAT preemergence herbicidal rating: 0.0
[10]; rate 0.1250 kg/ha
  ORYSAT preemergence herbicidal rating: 0.0
[10]; rate 0.2500 kg/ha
  ORYSAT preemergence herbicidal rating: 2.0
[10]; rate 0.5000 kg/ha
  ORYSAT preemergence herbicidal rating: 2.0
[11]; 0.1250 kg/ha
  Herbicidal rating MOOVA: 2.0
[11]; 0.2500 kg/ha
  Herbicidal rating MOOVA: 4.0
[11]; 0.5000 kg/ha
  Herbicidal rating MOOVA: 8.0
[12]; 0.1250 kg/ha
  Herbicidal rating SAGPY: 0.0
[12]; 0.2500 kg/ha
  Herbicidal rating SAGPY: 0.0
[12]; 0.5000 kg/ha
  Herbicidal rating SAGPY: 0.0
